From patent publication US4619929A, “Phenylpiperazine derivatives of hetarylphenols and hetarylanilines, their preparation, and therapeutic agents containing these compounds” (BASF Aktiengesellschaft, priority 1981, dated 1986)
Like-named read-outs stand apart in the source and are kept apart here.

Tests used:
[1] = Hypotensive action on rats under urethane narcosis, blood pressure measured in the carotid artery (ED 20%); assay type: in vivo, Sprague-Dawley rats; details: for Hypotensive effect R.A. (relative activity; chlorpromazine = 1.00) / ED20: rat; for Separation between sedative action and hypotensive action versus chlorpromazine: in words; for Hypotensive action in words: blood pressure lowering doses versus chlorpromazine: narcotized rats; for Hypotensive side effect, in words: versus chlorpromazine
Procedure: The blood pressure was measured in the carotid artery. The substance was administered either by introduction into a jugular vein (as an aqueous solution, at the rate of 1 ml/kg) or intraperitoneally as a suspension in tragacanth (at the rate of 10 ml/kg). The ED 20%, i.e. the dose which produces a 20% lowering of the blood pressure, was determined from the linear regression of log dose (mg/kg) and relative lowering of the blood pressure (Δ %).

[2] = Sedative action: orientation hypermotility of mice induced by a new environment (ED 50%); assay type: in vivo, female NMRI mice; details: for Sedative effect R.A. (relative activity; chlorpromazine = 1.00) / ED50: mouse, oral administration; for Inhibition of the orientation hypermotility of mice (sedative-neuroleptic action), in words / Sedative action compared with chlorpromazine, in words: mice
Procedure: The substance was administered orally to 4-8 groups each comprising 3 female NMRI mice. The orientation hypermotility induced by a new environment was determined photoelectrically, 30 minutes after administration of the substance, over a period of 30 minutes. The ED 50%, i.e. the dose which produces 50% reduction in orientation hypermotility compared to placebo-treated control […], is determined.

[3] = Table 1, quotient defined by formula drawing 8 (sedative ED 50% mouse oral, hypotensive ED 20% rat i.v.)
[4] = Table 1, intravenous administration
[5] = Table 1, intravenous administration, read-out: Hypotensive effect ED 20% (dose which reduces the blood pressure by 20%)
[6] = Table 1, read-out: Sedative effect ED 50% (dose which reduces the motility by 50%)
[7] = Table 2, defined by formula drawing 9, hypotensive effect i.v.
[8] = Table 2, intravenous (i.v.), read-out: Hypotensive effect ED 20%
[9] = Table 2, read-out: Sedative effect ED 50%
[10] = Table 2, defined by formula drawing 9, hypotensive effect i.p.
[11] = Table 2, intraperitoneal (i.p.)
[12] = ip, Table 2, intraperitoneal (i.p.), read-out: Hypotensive effect ED 20%

With `COc1ccccc1N1CCN(CCCOc2ccccc2-c2nnco2)CC1` [Example 1] the Q [1, 3] was 2,050, the “Hypotensive effect R.A. (relative activity; chlorpromazine = 1.00)” value [1, 4] was 3.25 and the ED20 [1, 5] was 0.008 mg/kg. For the same compound, the “Separation between sedative action and hypotensive action versus chlorpromazine” value [1] was “substantially greater”, the “Hypotensive action in words: blood pressure lowering doses versus chlorpromazine” value [1] was “significantly lower than in the case of chlorpromazine” and the “Sedative effect R.A. (relative activity; chlorpromazine = 1.00)” value ([2]; Table 1) was 0.13. For the same compound, the ED50 [2, 6] was 16.4 mg/kg.

With `COc1ccccc1N1CCN(CCCOc2ccccc2-c2nnc(C)o2)CC1` [Example 3, 1-[2-(5-Methyl-1,3,4-oxadiazol-2-yl)-phenoxy]-3-[4-(2-methoxyphenyl)-piperazin-1-yl]-propane] the Q [1, 3] was 534, the “Hypotensive effect R.A. (relative activity; chlorpromazine = 1.00)” value [1, 4] was 0.68 and the ED20 [1, 5] was 0.0384 mg/kg. For the same compound, the “Separation between sedative action and hypotensive action versus chlorpromazine” value [1] was “substantially greater”, the “Sedative effect R.A. (relative activity; chlorpromazine = 1.00)” value ([2]; Table 1) was 0.10 and the ED50 [2, 6] was 20.5 mg/kg.

With `COc1ccccc1N1CCN(CCCOc2cccc(-c3nnco3)c2)CC1` [Example 6, 1-[3-(1,3,4-Oxadiazol-2-yl)-phenoxy]-3-[4-(2-methoxyphenyl)-piperazin-1-yl]-propane] the Q [1, 3] was 417, the “Hypotensive effect R.A. (relative activity; chlorpromazine = 1.00)” value [1, 4] was 3.38 and the ED20 [1, 5] was 0.0077 mg/kg. For the same compound, the “Separation between sedative action and hypotensive action versus chlorpromazine” value [1] was “substantially greater”, the “Hypotensive action in words: blood pressure lowering doses versus chlorpromazine” value [1] was “significantly lower than in the case of chlorpromazine” and the “Sedative effect R.A. (relative activity; chlorpromazine = 1.00)” value ([2]; Table 1) was 0.66. It also gave an ED50 [2, 6] of 3.21 mg/kg.

With `COc1ccccc1N1CCN(CCCOc2cccc(-c3nnc(C)o3)c2)CC1` [Example 7, 1-[3-(5-Methyl-1,3,4-oxadiazol-2-yl)-phenoxy]-3-[4-(2-methoxyphenyl)-piperazin-1-yl]-propane] the Q [1, 3] was 312, the “Hypotensive effect R.A. (relative activity; chlorpromazine = 1.00)” value [1, 4] was 2.17 and the ED20 [1, 5] was 0.0012 mg/kg. For the same compound, the “Separation between sedative action and hypotensive action versus chlorpromazine” value [1] was “substantially greater”, the “Hypotensive action in words: blood pressure lowering doses versus chlorpromazine” value [1] was “significantly lower than in the case of chlorpromazine” and the “Sedative effect R.A. (relative activity; chlorpromazine = 1.00)” value ([2]; Table 1) was 0.56. The ED50 [2, 6] was 3.74 mg/kg.

For `Fc1ccc(N2CCN(CCCOc3ccc(-n4ccnc4)cc3)CC2)cc1` [Example 10], the Q [1, 7] was 3.0, the “Hypotensive effect R.A. (relative activity; chlorpromazine = 1.00)” value ([1]; Table 2, intravenous (i.v.)) was 0.03 and the ED20 [1, 8] was 1 mg/kg. For the same compound, the “Hypotensive side effect, in words” value [1] was “non-hypotensive action up to doses of 1 or 10 mg/kg”, the “Sedative effect R.A. (relative activity; chlorpromazine = 1.00)” value ([2]; Table 2) was 0.69 and the ED50 [2, 9] was 3.05 mg/kg. For the same compound, the “Inhibition of the orientation hypermotility of mice (sedative-neuroleptic action), in words” value (“Inhibition” below) [2] was “powerful inhibition of the orientation hypermotility of mice” and the “Sedative action compared with chlorpromazine, in words” value [2] was “almost achieved”.

For `COc1ccccc1N1CCN(CCCOc2ccc(-c3nnco3)cc2)CC1` [Example 11, 1-[4-(1,3,4-Oxadiazol-2-yl)-phenoxy]-3-[4-(2-methoxyphenyl)-piperazin-1-yl]-propane], the Q [1, 3] was 307, the “Hypotensive effect R.A. (relative activity; chlorpromazine = 1.00)” value [1, 4] was 3.71 and the ED20 [1, 5] was 0.007 mg/kg. The “Separation between sedative action and hypotensive action versus chlorpromazine” value [1] was “substantially greater”, the “Hypotensive action in words: blood pressure lowering doses versus chlorpromazine” value [1] was “significantly lower than in the case of chlorpromazine” and the “Sedative effect R.A. (relative activity; chlorpromazine = 1.00)” value ([2]; Table 1) was 0.98. For the same compound, the ED50 [2, 6] was 2.15 mg/kg.

In the case of `Fc1ccc(N2CCN(CCCNc3ccc(-n4cncn4)cc3)CC2)cc1` [Example 14, 1-[4-(1,2,4-Triazol-1-yl)-phenylamino]-3-[4-(4-fluorophenyl)-piperazin-1-yl]-propane], the Q [1, 10] is reported as 0.08, the “Hypotensive effect R.A. (relative activity; chlorpromazine = 1.00)” value [1, 11] is reported as 0.02 and the ED20 [1, 12] is reported as 10 mg/kg. The “Hypotensive side effect, in words” value [1] was “non-hypotensive action up to doses of 1 or 10 mg/kg”, the “Sedative effect R.A. (relative activity; chlorpromazine = 1.00)” value ([2]; Table 2) was 2.59 and the ED50 [2, 9] was 0.818 mg/kg. The “Inhibition” value [2] was “powerful inhibition of the orientation hypermotility of mice” and the “Sedative action compared with chlorpromazine, in words” value [2] was “clearly surpassed”.

For `Fc1ccc(N2CCN(CCCNc3ccc(-n4ccnc4)cc3)CC2)cc1` [Example 15, 1-[4-(Imidazol-1-yl)-phenylamino]-3-[4-(4-fluorophenyl)-piperazin-1-yl]-propane], the Q [1, 7] was 0.16, the “Hypotensive effect R.A. (relative activity; chlorpromazine = 1.00)” value ([1]; Table 2, intravenous (i.v.)) was 0.003 and the ED20 [1, 8] was 10 mg/kg. For the same compound, the “Hypotensive side effect, in words” value [1] was “non-hypotensive action up to doses of 1 or 10 mg/kg”, the “Sedative effect R.A. (relative activity; chlorpromazine = 1.00)” value ([2]; Table 2) was 1.3 and the ED50 [2, 9] was 1.62 mg/kg. The “Inhibition” value [2] was “powerful inhibition of the orientation hypermotility of mice” and the “Sedative action compared with chlorpromazine, in words” value [2] was “clearly surpassed”.

In the case of `CN(C)CCCN1c2ccccc2Sc2ccc(Cl)cc21` [chlorpromazine, reference compound], the Q [1, 3] is reported as 81, the “Hypotensive effect R.A. (relative activity; chlorpromazine = 1.00)” value [1, 4] is reported as 1.00 and the ED20 [1, 5] is reported as 0.026 mg/kg. For the same compound, the Q [1, 10] was 12.9, the Q [1, 7] was 81.0 and the “Hypotensive effect R.A. (relative activity; chlorpromazine = 1.00)” value [1, 11] was 1.0. For the same compound, the “Hypotensive effect R.A. (relative activity; chlorpromazine = 1.00)” value ([1]; Table 2, intravenous (i.v.)) was 1.0, the ED20 [1, 8] was 0.026 mg/kg and the ED20 [1, 12] was 0.164 mg/kg. For the same compound, the “Hypotensive side effect, in words” value [1] was “observed even at low doses”, the “Sedative effect R.A. (relative activity; chlorpromazine = 1.00)” value ([2]; Table 1) was 1.00 and the “Sedative effect R.A. (relative activity; chlorpromazine = 1.00)” value ([2]; Table 2) was 1.0. The ED50 [2, 9] was 2.11 mg/kg.
